In PMC11847541, “Liver fatty acid binding protein FABP1 transfers substrates to cytochrome P450 4A11 for catalysis” (The Journal of Biological Chemistry, 2025):
Where “and” joins values, the source holds several entries; their conditions need not be identical. Identical values can stand only once. Like-named read-outs stand apart in the source and are kept apart here.

Molecular target: T1, FABP1 (Homo sapiens, UniProt P07148)
T1 construct: GST (N, cleaved yes); made in house; host or cells: Escherichia coli DH5α
T1 sequence (P07148 with tags, fused parts or gaps): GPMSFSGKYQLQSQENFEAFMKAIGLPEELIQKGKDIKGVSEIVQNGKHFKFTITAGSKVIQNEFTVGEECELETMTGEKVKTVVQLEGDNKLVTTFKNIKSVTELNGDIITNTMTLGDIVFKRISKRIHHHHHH
Test: DAUDA displacement fluorescence titrations of DAUDA–FABP1 with fatty acids, fit in KinTek Explorer
Assay type: binding
Text: The FABP–DAUDA system was used to screen saturated fatty acids (C12 to C18) for binding to FABP, and the Kd values were estimated in competition with the fluorophore (using its known Kd) with the kinetic modeling software KinTek Explorer. The general model is shown in Fig. 5A, where the substrate is competed against the fluorescent DAUDA–FABP1 complex for binding, yielding a ternary DAUDA–FABP1–substrate complex that is accompanied by an attenuation in fluorescence.
Figure 5 Fluorescence titrations of DAUDA–FABP1 with fatty acids (“forward” titrations).A, model of all binding equilibria accounted for in the DAUDA displacement assays. In the fluorescence assays (λex = 335 nm), DAUDA (D) binds to FABP1 (F) to form a fluorescent (indicated with yellow flash) complex (FD), with which a lipid (S) is then competed against for binding. The binding of S attenuates the fluorescence (denoted with a smaller yellow flash) and forms a ternary complex (FDS). High concentrations of S may completely displace D to form FSS, a spectroscopically silent complex. Using this method, fluorescence titrations were carried out with the fatty acids (B) laurate, (C) myristate, (D) palmitate, (E) 16-hydroxypalmitate, and (F) stearate. Fluorescence at the emission maximum (482 nm) was monitored (as in Fig. 4) and normalized to the starting fluorescence (i.e., the FD complex prior to the addition of S). Each data point corresponds to one independent replicate. DAUDA, 11-dansylaminoundecanoic acid; FABP1, fatty acid binding protein.
For the titrations with lipids, solutions of FABP1 (0.5 μM) and DAUDA (0.25 μM) were prepared such that the fluorescent species was not present in excess ([75]). A baseline was recorded with phosphate buffer, and a starting (basis) spectrum was recorded of the FABP–DAUDA complex (1 ml). The lipid solutions were gradually added to the cuvette with gentle mixing (pipetting up and down ∼7× with a pipette tip), and spectra were recorded (Fig. S12A). Control titrations were also performed the same day with solvent alone (Fig. S12B) as a normalizing factor for the lipid titrations as fluorescence attenuation was also observed to a much lesser degree as a solvent effect (Fig. S12C, D). […] The data were processed such that within the lipid titration and the solvent titration, the F482 values were normalized to the starting value (the initial FABP1–DAUDA complex with nothing added, set to 100%). The relative fluorescence of the lipid titration was then normalized to the relative fluorescence of the solvent titration to adjust for fluorescence attenuation observed in the solvent titration (presumably from altering the fluorophore environment). Thus, the data were processed according to y=(F482/F482(initial))lipid/(F482/F482(initial))solvent , and the resulting values were plotted as a function of lipid concentration (Fig. S12E). The curve was imported into KinTek Explorer ([76]) and was fit to a kinetic model (Fig. S13) to determine the Kd values (Table 1). Within the KinTek software, all fluorescent species required fluorescence scaling factors to convert signal to concentration. Scaling factors for the FABP–DAUDA complex, FABP–DAUDA–lipid complex, and DAUDA alone were 460, 92, and 8, respectively.
Figure S12. Data processing for FABP1 titration with palmitate. Fluorescence spectrum of increasing additions of (A) palmitate (0-2 µM, added in C2H5OH) and (B) C2H5OH to a mixture of DAUDA (0.25 µM) and FABP1 (0.5 µM), performed as described in the Experimental Methods (see “Titrations of FABP1 with lipids, DAUDA”). C, fluorescence values at 482 nm (F482) from the titrations presented in parts A and B are normalized to the starting values (DAUDA-FABP1 complex, no volume added). Data are reported as a function of volume of titrant added to the cuvette (black, C2H5OH alone; red, palmitate in C2H5OH). […]

[1] = lipid binding to DAUDA-bound FABP1 (DAUDA displacement), read-out: Kd, FD + S ↔ FDS
[2] = lipid binding to apo-FABP1, estimated via kinetic modeling, read-out: Kd, F + S ↔ FS
[3] = lipid binding to ternary complex FDS (full displacement of DAUDA), low-affinity site, read-out: Kd, FDS + S ↔ FSS + D

SMILES: O=C(O)CCCCCCCCCCCCCCCO [16-OH Palmitate (C16), 16-hydroxypalmitate]
- koff, F + S ↔ FS (lipid (S) binding to apo-FABP1 (F), kinetic modeling, on-rate 9.0 × 10^7 M^−1 s^−1): 47 s⁻¹
- Kd [1]: 15 µM
- koff, FD + S ↔ FDS (lipid binding to DAUDA-bound FABP1 (FD), on-rate 2.3 × 10^7 M^−1 s^−1): 350 s⁻¹
- Kd [2]: 0.52 µM
- koff, FDS + S ↔ FSS + D (lipid binding to ternary complex FDS (full displacement of DAUDA)): 1500 s⁻¹
- Kd [3]: 63 µM

SMILES: CCCCCCCCCCCCCCCC(=O)O [Palmitate (C16), palmitate]
- affinity difference between the two FABP1 binding sites: > 250 fold
- koff of palmitate from FABP1 relative to binding of palmitate (1–10 μM) to P450 4A11 (faster): 10–100 fold
- remaining activity at 0.01 µM (lipid 0.01 µM, FABP1 0.5 µM, DAUDA 0.25 µM, F482 normalized, read-out: % Fluorescence): 91%
- remaining activity at 0.025 µM (lipid 0.025 µM, FABP1 0.5 µM, DAUDA 0.25 µM, F482 normalized): 85.5%
- remaining activity at 0.05 µM (lipid 0.05 µM, FABP1 0.5 µM, DAUDA 0.25 µM, F482 normalized): 84.5%
- remaining activity at 0.075 µM (lipid 0.075 µM, FABP1 0.5 µM, DAUDA 0.25 µM, F482 normalized): 79.1%
- remaining activity at 0.1 µM (lipid 0.1 µM, FABP1 0.5 µM, DAUDA 0.25 µM, F482 normalized, read-out: % Fluorescence): 74.5%
- remaining activity at 0.15 µM (lipid 0.15 µM, FABP1 0.5 µM, DAUDA 0.25 µM, F482 normalized): 67.2%
- remaining activity at 0.2 µM (lipid 0.2 µM, FABP1 0.5 µM, DAUDA 0.25 µM, F482 normalized): 60.3%
- remaining activity at 0.25 µM (lipid 0.25 µM, FABP1 0.5 µM, DAUDA 0.25 µM, F482 normalized): 55.8%
- remaining activity at 0.35 µM (lipid 0.35 µM, FABP1 0.5 µM, DAUDA 0.25 µM, F482 normalized): 42.4%
- remaining activity at 0.45 µM (lipid 0.45 µM, FABP1 0.5 µM, DAUDA 0.25 µM, F482 normalized): 36.3%
- remaining activity at 0.6 µM (lipid 0.6 µM, FABP1 0.5 µM, DAUDA 0.25 µM, F482 normalized, read-out: % Fluorescence): 30.3%
- remaining activity at 0.9 µM (lipid 0.9 µM, FABP1 0.5 µM, DAUDA 0.25 µM, F482 normalized): 21.6%
- remaining activity at 1.15 µM (lipid 1.15 µM, FABP1 0.5 µM, DAUDA 0.25 µM, F482 normalized): 20.5%
- remaining activity at 1.4 µM (lipid 1.4 µM, FABP1 0.5 µM, DAUDA 0.25 µM, F482 normalized): 19.4%
- remaining activity at 1.9 µM (lipid 1.9 µM, FABP1 0.5 µM, DAUDA 0.25 µM, F482 normalized): 20.4%
- koff (lipid (S) binding to apo-FABP1 (F), kinetic modeling, on-rate 9.0 × 10^7 M^−1 s^−1, read-out: koff, F + S ↔ FS): 4.1 s⁻¹
- Kd [1]: 0.01 µM
- koff (lipid binding to DAUDA-bound FABP1 (FD), on-rate 2.3 × 10^7 M^−1 s^−1, read-out: koff, FD + S ↔ FDS): 0.24 s⁻¹
- Kd [2]: 0.046 µM
- Kd [3]: 10 µM
- koff (lipid binding to ternary complex FDS (full displacement of DAUDA), read-out: koff, FDS + S ↔ FSS + D): 240 s⁻¹
- tighter binding of palmitate to FABP1 than to P450 4A11 (ratio of Kd values): > 100 fold and 100 fold
